Reference: US6905852B1, “Herbicide-resistant protoporphyrinogen oxidase isolated from Nicotiana tabacum” (Nihon Nohyaku Co., Ltd., priority 1997, dated 2005)
Values after ≈ are worked out from the molar mass of the structure shown.

Columns and labels:
Assay in all cases: MIC on MS agar medium, cross-resistance to herbicides
Format in all cases: cell-based, Nicotiana tabacum
ETR-056 = test system: ETR-056
Description: (§1) Further, cross-resistance of a resistant strain tolerant to herbicides with various modes of action was examined. Sensitivity to fomesafen (trade mark: FLEX) and oxadiazon (trade mark: RONSTAR), which are photobleaching herbicide and accumulate protoporphyrin IX; pyrazoxyfen (trademark: PAICER) which is a chlorophyll synthesis inhibitor and causes bleaching; DPX-84 and bialaphos (trademark: BASTA) and glyphosate (trademark: ROUNDUP) which are an inhibitor of the amino acid synthesis; butachlor (trademark: MACHETE) which is a protein synthesis inhibitor; propanil (trademark: STAM) which is an inhibitor of light synthesis photochemical system II and paraquat (trademark: PREEGLOX) which is an inhibitor of photosystem I and produces an active oxygen was compared. Into MS agar medium containing each herbicides, each resistant strain was transplanted and minimum inhibition concentration (MIC) was measured. […] From the above results, ETR-056 was thought to have resistance to an active oxygen caused by overproduction of superoxide dismutase, and ETR-253 was thought to have resistance to many herbicides caused by decreasing of a membrane permeability, and ETR-245 was thought to have resistance caused by mutation of a target enzyme or overproduction of a target enzyme.
(§2) MIC of compound A to the sensitive cell lines, ETR-056, ETR-245 and ETR-253 were measured.

ETR-245 = test system: ETR-245
Description: as §1, §2

ETR-253 = test system: ETR-253
Description: as §1, §2

Sensitive strain = conditions: sensitive cell line
Description: as §1, §2

In the case of `CCOC(=O)COc1cc(-c2nn(C)c(OC(F)F)c2Cl)c(F)cc1Cl` [Compound A, ethyl 2-chloro-5-(4-chloro-5-difluoromethoxy-1-methyl-1H-pyrazol-3-yl)-4-fluorophenoxyacetate], the MIC (ETR-056) is reported as “over 2,400 nM”, the MIC (ETR-245) is reported as “over 2,400 nM” and the MIC (ETR-253) is reported as “over 2,400 nM”. It also gave an MIC (Sensitive strain) of 5 nM (≈ 2.07 ng/mL).
